Key:
Type in all cases: cell-based
rat mesangium cells [1] = experiment: Suppressive activity of galectin-3 on the cellular death of rat mesangium cells (MTS tetrazolium conversion); details: 50 μg/ml galectin-3; presence and absence of 0.4 ng/ml TGF-β; day 1-4; FIG. 3
Description: Rat mesangium cells were separated from Sprague-Dawley rats according to the method of Striker et al. (Striker, G. E., et al., Lab. Invest. (1985) 53; 123-128). The separated rat mesangium cells were cultured at 37° C. in the presence of 5% CO2 in the wells of a 96-well plate using an essential medium (DMEM/F12 (1:1) culture medium containing 60 μg/ml penicillin, 100 μg/ml streptomycin, manufactured by Gibco BRL) supplemented with 10% fetal bovine serum. After culturing to semi-confluence, the cultured rat mesangium cells were washed with the essential medium, cultured for 2 days in the essential medium supplemented with 0.1% bovine serum albumin (Sigma), and then were further cultured for 1 to 4 days in the essential medium supplemented with 0.1% bovine serum albumin (Sigma) containing 0 or 50 μg/ml galectin-3 and 0 or 0.4 ng/ml TGF-β. On day 1, 2, 3, and 4 after the addition of galectin-3 and TGF-β, the amount of the cultured rat mesangium cells that survived in their respective wells were measured using as an index the conversion from MTS tetrazolium (Cell Titer 96 Aqueous one solution manufactured by Promega) to formazan by the living cells.

rat mesangium cells [2] = experiment: Promoting effect of galectin-3 on collagen type IV production by mesangium cells (sandwich ELISA); details: 10 or 30 μg/ml galectin-3; 0-1.6 ng/ml TGF-β; day 3; FIG. 4
Description: Rat mesangium cells were separated in a similar manner to that of Example 3. The separated mesangium cells were cultured at 37° C. in the presence of 5% CO2 in the wells of a 96-well plate using an essential medium (DMEM/F12 (1:1) culture medium containing 60 μg/ml penicillin, 100 μg/ml streptomycin, manufactured by Gibco BRL) supplemented with 10% fetal bovine serum. After culturing to confluence, the cultured rat mesangium cells were washed with the essential medium, cultured for 1 to 2 days in the essential medium supplemented with 0.1% bovine serum albumin (Sigma), and then were further cultured for 3 days in the essential medium supplemented with 0.1% bovine serum albumin (Sigma) containing 0, 10 or 30 μg/ml galectin-3 and 0, 0.1, 0.4 or 1.6 ng/ml TGF-β. On day 3 after the addition of galectin-3 and TGF-β, the amount of type IV collagen accumulated in the culture liquid was measured using a sandwich ELISA method that employed a goat anti-type IV collagen antibody as the immobilized antibody and a biotin-labeled goat anti-type IV collagen antibody (Chemicon) as the primary antibody. The amount of type IV collagen in the culture liquid of each well was normalized by dividing it by the amount of the living cells in each well determined in a similar manner to that described in Example 3.

galectin-3 = galectin-3 (Homo sapiens, UniProt P17931); experiment: Inhibition by galectin-3-binding inhibiting sugar of galectin-3-promoted collagen type IV production by rat mesangium cells; details: 0.4 μg/ml galectin-3, 0.25-2 mM LNFP-I, day 2, FIG. 6
Chain of galectin-3 (P17931 whole entry, species assumed): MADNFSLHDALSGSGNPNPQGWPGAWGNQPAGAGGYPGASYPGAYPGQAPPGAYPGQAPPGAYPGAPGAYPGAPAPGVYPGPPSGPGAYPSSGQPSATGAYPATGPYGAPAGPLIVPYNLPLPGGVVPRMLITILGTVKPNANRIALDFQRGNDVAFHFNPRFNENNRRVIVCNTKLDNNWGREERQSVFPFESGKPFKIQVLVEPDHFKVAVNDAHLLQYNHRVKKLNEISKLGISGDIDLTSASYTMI
Description: Rat mesangium cells were separated in a similar manner to that described in Example 3. The separated rat mesangium cells were cultured at 37° C. in the presence of 5% CO2 in the wells of a 96-well plate using an essential medium (DMEM/F12 (1:1) culture medium containing 60 μg/ml penicillin, 100 μg/ml streptomycin, manufactured by Gibco BRL) supplemented with 10% fetal bovine serum. […] On day 2 after the addition of galectin-3 and LNFP-I, the amount of type IV collagen accumulated in the culture liquid of each well was measured using a sandwich ELISA method that employed a goat anti-type IV collagen antibody (Chemicon) as an immobilized antibody and a biotin-labeled goat anti-type IV collagen antibody (Chemicon) as a primary antibody. The amount of type IV collagen in the culture medium of each well was normalized by dividing it by the amount of the living cells in each well determined in a similar manner to that described in Example 4.

Row | Substance | cellular death of the rat mesangium cells (amount of surviving cells) (rat mesangium cells [1]) | production and/or accumulation of type IV collagen in culture liquid, normalized to living cells (rat mesangium cells [2]) | suppression of galectin-3-promoted production and/or accumulation of type IV collagen (galectin-3)
1 | galectin-3: protein of about 30 Kd belonging to the family of β-galactoside binding protein; a lectin | suppress the cellular death | promotes the production and/or the accumulation of type IV collagen | –
2 | lacto-n-fucopentaose I | – | – | suppresses the promotion of the production and/or the accumulation of type IV collagen
